Our source for the IC50 values is US11174268B2, “Benzenesulfonamide compouds and their use as therapeutic agents” (Xenon Pharmaceuticals Inc., priority 2016, dated 2021).

Usually IC50 stands for the point on the concentration scale where inhibition reaches its midpoint.

For series [1], the target named is NaV1.1 (Homo sapiens (Human), UniProt P35498). Description: Sodium Influx Assay (Flux), NaV1.1.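 Also: channels co-expressed with human β1 subunit and held open by modulators, cells exposed to compounds for one hour at room temperature, IC50 from percent inhibition of influx.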 Type of series: cell-based. The following applies: Trex HEK293 cells, ANG2 dye, inactivated state.
In series [2] the target is NaV1.5 (Homo sapiens (Human), UniProt Q14524). The series is described as follows: Sodium Influx Assay (Flux), NaV1.5.
Series [3] addresses NaV1.6 (Homo sapiens (Human), UniProt Q9UQD0). The series is described as follows: Sodium Influx Assay (Flux), NaV1.6.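 Also: Tetracycline-induced cells, compounds applied for one hour at room temperature with modulators holding channels open, IC50 from percent inhibition of sodium influx.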 It is filed as cell-based. The following applies: Trex HEK293 cells, ANG2 dye, inactivated state.
Setting [4] is: read-out: Flux NaV1.5 IC50, Trex HEK293 cells, ANG2 dye, inactivated state.

Counter-ions that a name gives are not always drawn. Like-named read-outs stand apart in the source and are kept apart here.

Sequence of NaV1.5 (Q14524 other isoform, or with tags, fused parts or gaps): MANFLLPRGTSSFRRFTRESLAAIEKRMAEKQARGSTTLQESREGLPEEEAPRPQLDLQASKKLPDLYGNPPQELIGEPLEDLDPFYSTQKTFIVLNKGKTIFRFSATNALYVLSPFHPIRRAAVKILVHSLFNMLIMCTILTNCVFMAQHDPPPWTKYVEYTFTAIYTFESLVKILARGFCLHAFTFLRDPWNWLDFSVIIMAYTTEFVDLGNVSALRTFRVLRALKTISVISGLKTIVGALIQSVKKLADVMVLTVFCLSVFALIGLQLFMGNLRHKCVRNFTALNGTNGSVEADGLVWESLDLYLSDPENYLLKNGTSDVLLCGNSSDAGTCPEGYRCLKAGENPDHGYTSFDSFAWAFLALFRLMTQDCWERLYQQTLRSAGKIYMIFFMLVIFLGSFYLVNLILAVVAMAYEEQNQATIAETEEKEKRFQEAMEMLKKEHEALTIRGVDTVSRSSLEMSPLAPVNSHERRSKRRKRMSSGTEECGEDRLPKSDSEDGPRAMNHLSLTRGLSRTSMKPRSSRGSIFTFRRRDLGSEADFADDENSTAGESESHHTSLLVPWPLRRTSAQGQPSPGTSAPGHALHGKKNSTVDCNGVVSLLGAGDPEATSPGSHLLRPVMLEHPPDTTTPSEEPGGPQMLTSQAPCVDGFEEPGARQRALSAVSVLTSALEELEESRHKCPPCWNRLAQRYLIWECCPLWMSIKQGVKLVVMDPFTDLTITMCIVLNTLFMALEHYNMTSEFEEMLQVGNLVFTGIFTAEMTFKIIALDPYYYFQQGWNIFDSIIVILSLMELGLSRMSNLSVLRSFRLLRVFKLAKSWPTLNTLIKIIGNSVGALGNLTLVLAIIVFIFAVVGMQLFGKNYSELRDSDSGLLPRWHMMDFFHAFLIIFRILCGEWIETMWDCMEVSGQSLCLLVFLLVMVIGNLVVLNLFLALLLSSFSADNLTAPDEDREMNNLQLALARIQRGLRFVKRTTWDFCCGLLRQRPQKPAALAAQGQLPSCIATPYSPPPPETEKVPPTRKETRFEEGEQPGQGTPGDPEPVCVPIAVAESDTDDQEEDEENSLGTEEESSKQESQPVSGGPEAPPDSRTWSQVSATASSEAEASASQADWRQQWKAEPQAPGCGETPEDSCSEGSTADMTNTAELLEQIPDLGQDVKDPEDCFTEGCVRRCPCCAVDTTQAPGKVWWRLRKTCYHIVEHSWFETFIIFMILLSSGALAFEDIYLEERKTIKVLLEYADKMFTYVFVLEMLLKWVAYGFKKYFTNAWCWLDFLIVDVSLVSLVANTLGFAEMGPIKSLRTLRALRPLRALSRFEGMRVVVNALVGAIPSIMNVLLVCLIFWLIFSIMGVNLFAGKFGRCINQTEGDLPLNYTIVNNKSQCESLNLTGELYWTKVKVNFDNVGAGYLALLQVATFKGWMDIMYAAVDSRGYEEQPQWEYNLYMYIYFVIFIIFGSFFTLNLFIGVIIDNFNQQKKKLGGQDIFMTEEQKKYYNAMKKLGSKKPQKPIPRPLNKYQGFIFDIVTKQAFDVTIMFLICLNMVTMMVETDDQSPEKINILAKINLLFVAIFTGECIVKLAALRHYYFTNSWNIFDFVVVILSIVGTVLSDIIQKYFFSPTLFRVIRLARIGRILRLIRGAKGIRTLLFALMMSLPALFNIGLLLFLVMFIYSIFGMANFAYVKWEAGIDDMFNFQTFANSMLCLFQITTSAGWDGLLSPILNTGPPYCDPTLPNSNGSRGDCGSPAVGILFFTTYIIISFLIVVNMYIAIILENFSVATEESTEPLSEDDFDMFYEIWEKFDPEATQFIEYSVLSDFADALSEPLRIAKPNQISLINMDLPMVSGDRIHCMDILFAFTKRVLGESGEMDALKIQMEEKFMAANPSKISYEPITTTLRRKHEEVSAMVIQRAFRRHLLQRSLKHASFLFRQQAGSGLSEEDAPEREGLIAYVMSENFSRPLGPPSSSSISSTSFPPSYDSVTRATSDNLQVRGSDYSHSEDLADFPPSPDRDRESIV

Turning to `C[C@H](Oc1cc(F)c(S(=O)(=O)Nc2nccs2)cc1Cl)c1ccc(Cl)c(Cl)c1` [Example 108, (S)-5-chloro-4-(1-(3,4-dichlorophenyl)ethoxy)-2-fluoro-N-(thiazol-2-yl)benzenesulfonamide], the results for the IC50 in series [1], in series [2] (setting [4]) and in series [3] were 21.1 µM, 22.4 µM and 14.5 µM, respectively.

Regarding `CC(C)C[C@H](Nc1cc(F)c(S(=O)(=O)Nc2nccs2)cc1Cl)c1ccccc1` [Example 109, (S)-5-chloro-2-fluoro-4-((3-methyl-1-phenylbutyl)amino)-N-(thiazol-2-yl)benzenesulfonamide], the figures for the IC50 in series [1], in series [2] (setting [4]) and in series [3] were 1.11 µM, 7.86 µM and 0.214 µM, respectively.

In the case of `CC(C)C[C@@H](Nc1cc(F)c(S(=O)(=O)Nc2nccs2)cc1Cl)c1ccccc1` [Example 110, (R)-5-chloro-2-fluoro-4-((3-methyl-1-phenylbutyl)amino)-N-(thiazol-2-yl)benzenesulfonamide], the figures for the half-maximal inhibitory concentration (IC50) in series [1], in series [2] (setting [4]) and in series [3] were 3.84 µM, 3.15 µM and 1.03 µM, respectively.

On to `CCC[C@H](Nc1cc(F)c(S(=O)(=O)Nc2nccs2)cc1Cl)c1ccccc1` [Example 111, (S)-5-chloro-2-fluoro-4-((1-phenylbutyl)amino)-N-(thiazol-2-yl)benzenesulfonamide], for which the IC50 in series [1] came to 1.39 µM; in series [2] (setting [4]) it was 8.33 µM; in series [3], 0.352 µM.

Take `C[C@H](Oc1cc(F)c(S(=O)(=O)Nc2cscn2)cc1Cl)c1cccc(F)c1` [Example 118, (S)-5-chloro-2-fluoro-4-(1-(3-fluorophenyl)ethoxy)-N-(thiazol-4-yl)benzenesulfonamide]: the IC50 in series [1] turned out to be 15.9 µM; in series [2] (setting [4]), 7.5 µM; in series [3], 3.18 µM.

Take `C[C@@H](Oc1cc(F)c(S(=O)(=O)Nc2nccs2)cc1Cl)c1ccccc1F` [Example 121, (R)-5-chloro-2-fluoro-4-(1-(2-fluorophenyl)ethoxy)-N-(thiazol-2-yl)benzenesulfonamide]: the values for the IC50 in series [1], in series [2] (setting [4]) and in series [3] were 3.38 µM, 2.15 µM and 2.32 µM, respectively.

Take `C[C@H](Oc1cc(F)c(S(=O)(=O)Nc2cscn2)cc1Cl)c1cc(Cl)ccc1F` [Example 124, (S)-5-chloro-4-(1-(5-chloro-2-fluorophenyl)ethoxy)-2-fluoro-N-(thiazol-4-yl)benzenesulfonamide]: the IC50 worked out at 15.9 µM in series [1], 1.87 µM in series [2] (setting [4]) and 1.84 µM in series [3].

With `C[C@H](Sc1cc(F)c(S(=O)(=O)Nc2nccs2)cc1Cl)c1ccccc1` [Example 125, (S)-5-chloro-2-fluoro-4-((1-phenylethyl)thio)-N-(thiazol-2-yl)benzenesulfonamide], the IC50 in series [1] was 3.26 µM; in series [2] (setting [4]) it was 3.35 µM; in series [3], 1.73 µM.

In the case of `CC[C@H](Nc1cc(F)c(S(=O)(=O)Nc2nccs2)cc1C)c1ccccc1` [Example 126, (S)-2-fluoro-5-methyl-4-((1-phenylpropyl)amino)-N-(thiazol-2-yl)benzenesulfonamide], the IC50 was 0.147 µM in series [1], 11.4 µM in series [2] and 0.114 µM in series [3].

Turning to `O=S(=O)(Nc1cscn1)c1cc(Cl)c(NCc2c(F)cccc2CN2CC3(CCC3)C2)cc1F` [Example 128, 4-((2-((2-azaspiro[3.3]heptan-2-yl)methyl)-6-fluorobenzyl)amino)-5-chloro-2-fluoro-N-(thiazol-4-yl)benzenesulfonamide], the IC50 in series [1] came out at 5.37 µM; in series [2], 6.72 µM; in series [3], 0.208 µM.

As to `O=S(=O)(Nc1cscn1)c1cc(Cl)c(NCc2ccc(F)cc2CN2CCC2)cc1F` [Example 132, 4-((2-(azetidin-1-ylmethyl)-4-fluorobenzyl)amino)-5-chloro-2-fluoro-N-(thiazol-4-yl)benzenesulfonamide], the half-maximal inhibitory concentration (IC50) in series [1] turned out to be 7.87 µM; in series [2] (setting [4]) it was 24.7 µM; in series [3] it was 5.11 µM.

As to `O=S(=O)(Nc1ncccn1)c1c(F)cc(NCc2c(F)cccc2CN2CCC2)cc1F` [Example 145, 4-((2-(azetidin-1-ylmethyl)-6-fluorobenzyl)amino)-2,6-difluoro-N-(pyrimidin-2-yl)benzenesulfonamide 2,2,2-trifluoroacetate], the IC50 in series [1] was found to be 30 µM; in series [2] (setting [4]), 30 µM; in series [3] it was 0.467 µM.

Consider `C[C@H](Nc1cc(F)c(S(=O)(=O)Nc2cscn2)cc1Cl)c1cc(C2CC2)ccc1F` [Example 146, (S)-5-chloro-4-((1-(5-cyclopropyl-2-fluorophenyl)ethyl)amino)-2-fluoro-N-(thiazol-4-yl)benzenesulfonamide], for which the results for the IC50 in series [1], in series [2] (setting [4]) and in series [3] were 5.57 µM, 9.84 µM and 4.12 µM, respectively.

With `Cc1ccc(F)cc1CNc1cc(F)c(S(=O)(=O)Nc2cscn2)cc1Cl` [Example 147, 5-chloro-2-fluoro-4-((5-fluoro-2-methylbenzyl)amino)-N-(thiazol-4-yl)benzenesulfonamide], the values for the 50% inhibitory concentration (IC50) in series [1], in series [2] (setting [4]) and in series [3] were 3.43 µM, 2.72 µM and 3.31 µM, respectively.

As to `C[C@H](Nc1ccc(S(=O)(=O)Nc2cscn2)c(F)c1Cl)c1c(F)cccc1Cl` [Example 148, (S)-3-chloro-4-((1-(2-chloro-6-fluorophenyl)ethyl)amino)-2-fluoro-N-(thiazol-4-yl)benzenesulfonamide], the IC50 was found to be 2.95 µM in series [1], 4.84 µM in series [2] (setting [4]) and 1.25 µM in series [3].

`C[C@H](Nc1ccc(S(=O)(=O)Nc2cscn2)c(F)c1Cl)c1c(F)cccc1F` [Example 149, (S)-3-chloro-4-((1-(2,6-difluorophenyl)ethyl)amino)-2-fluoro-N-(thiazol-4-yl)benzenesulfonamide]: the IC50 in series [1] came to 3.36 µM; in series [2] (setting [4]) it was 6.39 µM; in series [3], 0.78 µM.

On to `O=S(=O)(Nc1cscn1)c1cc(Cl)c(OCc2c(F)ccc(F)c2CN2CCC2)cc1F` [Example 150, 4-((2-(azetidin-1-ylmethyl)-3,6-difluorobenzyl)oxy)-5-chloro-2-fluoro-N-(thiazol-4-yl)benzenesulfonamide], for which the IC50 in series [1] stood at 30 µM; in series [2] (setting [4]), 8.66 µM; in series [3], 2.82 µM.

As for `CN1CCN(Cc2cccc(F)c2CNc2cc(F)c(S(=O)(=O)Nc3cscn3)c(F)c2)CC1` [Example 151, 2,6-difluoro-4-((2-fluoro-6-((4-methylpiperazin-1-yl)methyl)-benzyl)amino)-N-(thiazol-4-yl)benzenesulfonamide formate], the figures for the IC50 in series [1], in series [2] (setting [4]) and in series [3] were 20.5 µM, 30 µM and 2.1 µM, respectively.

As to `CCOC1(C)CN(Cc2cccc(F)c2CNc2cc(F)c(S(=O)(=O)Nc3cscn3)c(F)c2)C1` [Example 152, 4-((2-((3-ethoxy-3-methylazetidin-1-yl)methyl)-6-fluorobenzyl)amino)-2,6-difluoro-N-(thiazol-4-yl)benzenesulfonamide formate], the IC50 was determined as 10.3 µM in series [1], 19 µM in series [2] (setting [4]) and 0.16 µM in series [3].

With `COC[C@H]1CCCN1Cc1cccc(F)c1CNc1cc(F)c(S(=O)(=O)Nc2cscn2)c(F)c1` [Example 154, (R)-2,6-difluoro-4-((2-fluoro-6-((2-(methoxymethyl)pyrrolidin-1-yl)methyl)benzyl)amino)-N-(thiazol-4-yl)benzenesulfonamide formate], the half-inhibitory concentration (IC50) in series [1] is 28.8 µM; in series [2] (setting [4]), 30 µM; in series [3], 0.451 µM.

On to `O=S(=O)(Nc1cscn1)c1c(F)cc(NCc2c(F)cccc2CN2CCC3(CCO3)C2)cc1F` (stereo not drawn) [Example 155, 4-((2-((1-oxa-6-azaspiro[3.4]octan-6-yl)methyl)-6-fluorobenzyl)amino)-2,6-difluoro-N-(thiazol-4-yl)benzenesulfonamide formate], for which the IC50 was found to be 30 µM in series [1], 30 µM in series [2] (setting [4]) and 0.25 µM in series [3].

As to `O=S(=O)(Nc1cscn1)c1c(F)cc(NCc2c(F)cccc2CN2CCC23COC3)cc1F` [Example 157, 4-((2-((6-oxa-1-azaspiro[3.3]heptan-1-yl)methyl)-6-fluorobenzyl)amino)-2,6-difluoro-N-(thiazol-4-yl)benzenesulfonamide formate], the half-inhibitory concentration (IC50) in series [1] stood at 30 µM; in series [2] (setting [4]) it was 30 µM; in series [3], 2.36 µM.

Take `O=S(=O)(Nc1cscn1)c1c(F)cc(NCc2c(F)cccc2CN2CCC3(CCC3)C2)cc1F` [Example 159, 4-((2-((6-azaspiro[3.4]octan-6-yl)methyl)-6-fluorobenzyl)amino)-2,6-difluoro-N-(thiazol-4-yl)benzenesulfonamide formate]: the concentration for half-maximal inhibition (IC50) in series [1] was determined as 9.21 µM; in series [2], 11.8 µM; in series [3] it was 0.153 µM.

For the molecule `O=S(=O)(Nc1cscn1)c1c(F)cc(NCc2c(F)cccc2CN2CC3(C2)CC(F)(F)C3)cc1F` [Example 160, 4-((2-((6,6-difluoro-2-azaspiro[3.3]heptan-2-yl)methyl)-6-fluorobenzyl)amino)-2,6-difluoro-N-(thiazol-4-yl)benzenesulfonamide formate], the results for the half-maximal inhibitory concentration (IC50) in series [1], in series [2] and in series [3] were 6.51 µM, 23 µM and 0.064 µM, respectively.

On to `COCCN(C)Cc1cccc(F)c1CNc1cc(F)c(S(=O)(=O)Nc2cscn2)c(F)c1` [Example 162, 2,6-difluoro-4-((2-fluoro-6-(((2-methoxyethyl)(methyl)amino)methyl)benzyl)amino)-N-(thiazol-4-yl)benzenesulfonamide formate], for which the IC50 in series [1] came to 30 µM; in series [2] (setting [4]), 11 µM; in series [3], 0.461 µM.

`O=S(=O)(Nc1cscn1)c1c(F)cc(NCc2c(F)cccc2CN2CC3(C2)CC3(F)F)cc1F` [Example 163, 4-((2-((1,1-difluoro-5-azaspiro[2.3]hexan-5-yl)methyl)-6-fluorobenzyl)amino)-2,6-difluoro-N-(thiazol-4-yl)benzenesulfonamide]: the IC50 was determined as 6.35 µM in series [1], 30 µM in series [2] (setting [4]) and 0.288 µM in series [3].
